Experimental findings from patent US11998534B2, “GPX4 inhibitor in combination with anticancer agent for treating proliferative disease” (Eubulus Biotherapeutics Inc., priority 2020, dated 2024) are described below.

Common to all, as to format: cell-based
Test [1] relates to cancerous cell lines (e.g., HT-29, Hub-7, or OVCAR-8). Put plainly: Cell proliferation assay (CELL-TITER GLO cell viability), Table 1. To be noted: 24 h incubation, cell line not stated. As for the experimental part:
(§1) The activity of a combination of a GPX4 inhibitor (e.g., compound A1, A2, or A3) and a tyrosine kinase inhibitor (e.g., neratinib, regorafenib, or sorafenib) was determined in a cell proliferation assay using cancerous cell lines (e.g., HT-29 (colorectal adenocarcinoma), Hub-7 (hepatocellular carcinoma), or OVCAR-8 (ovarian adenocarcinoma)). Cells of each cell line were seeded in a 96-well tissue culture plate. After incubated overnight, a compound or a combination was added at predetermined concentration(s). After the cells were incubated for 24 h, cell viability was determined using a CELL-TITER GLO® assay. The CELL-TITER GLO® reagent (50 μL) was added to each well and the luminescence was measured by a multimode microplate reader after a brief period of shaking. EC50 values were determined from dose response curves.

The test system of test [2] is HT-29 cells. Put plainly: Cell viability assay with ferroptosis/apoptosis inhibitor rescue, HT-29 cells (FIGS. 4-6). Particulars: GPX4 inhibitor 100 nM + sorafenib C1 3 μM. The method, then: as §1
Test [3] deals with Huh-7 cells. Put plainly: Cell viability assay with ferroptosis/apoptosis inhibitor rescue, Huh-7 cells (FIGS. 1-3). To be noted: GPX4 inhibitor 100 nM + sorafenib C1 3 μM. The method, then:
as §1

Setting [4] is: GPX4 inhibitor alone, read-out: Inhibition of Cell Proliferation, Monotherapy (EC50).
Setting [5] is: GPX4 inhibitor in combination with C2 (10 μM), read-out: Inhibition of Cell Proliferation, Combination +C2 (10 μM) (EC50).
Where [6] appears, read: GPX4 inhibitor in combination with C3 (3 μM), read-out: Inhibition of Cell Proliferation, Combination +C3 (3 μM) (EC50).

Read-outs that look alike come from different tables or passages of the source. Peptide text beside a SMILES is read from it. * marks the point of attachment. Cbz = O=C(OCc1ccccc1)*; CH2F = FC*

On to `COC(=O)c1ccc(C2c3[nH]c4ccccc4c3C[C@H](C(=O)OC)N2C(=O)CCl)cc1` (stereo partly drawn) [A1, methyl (3R)-2-(2-chloroacetyl)-2,3,4,9-tetrahydro-1-(4-(methoxycarbonyl)phenyl)-1H-pyrido[3,4-b]indole-3-carboxylate], for which the EC50 in test [1] (setting [4]) was determined as 8000 nM; in test [1] (setting [5]), 57 nM; in test [1] (setting [6]) it was 970 nM.
The like results for `C#CC(=O)N1C(c2ccc(C(=O)OC)cc2)c2[nH]c3ccccc3c2C[C@@H]1CO` (stereo partly drawn) [A2, methyl 4-((3R)-3-(hydroxymethyl)-2-propioloyl-2,3,4,9-tetrahydro-1H-pyrido[3,4-b]indol-1-yl)benzoate] were, in that order, 22500 nM, 97 nM and 1300 nM.
For `C#CC(=O)N(c1ccc(OC)c(Cl)c1)C(C(=O)NC(C)(C)C)c1ccc(N)cc1` (stereo not shown) [A3, N-(1-(4-aminophenyl)-2-(tert-butylamino)-2-oxoethyl)-N-(3-chloro-4-methoxyphenyl)propiolamide], the EC50 is 5700 nM in test [1] (setting [4]), 207 nM in test [1] (setting [5]) and 1800 nM in test [1] (setting [6]).
Turning to `CCOC(=O)c1ccc(NC2CCCCC2)c(N)c1` [Fer-1, ferrostatin-1], the “Rescue from cell death induced by GPX4 inhibitor A1, A2, or A3 in combination with sorafenib C1” value in test [2] and in test [3] was “able to rescue” each time.
Turning to `COC(=O)C[C@H](NC(=O)[C@H](C)NC(=O)[C@@H](NC(=O)OCc1ccccc1)C(C)C)C(=O)CF` [ZVAD, Z-VAD-FMK] (Cbz-Val-Ala-Asp(OMe)-CH2F), the “Rescue from cell death induced by GPX4 inhibitor A1, A2, or A3 in combination with sorafenib C1” value in test [2] and in test [3] was “could not” in each case.
